What was measured:
Type in all cases: functional
[1] = test system: LOX IMVI; assay: Cytotoxicity against human LOXIMVI cells assessed as growth inhibition after 48 hrs by sulforhodamine B assay
[2] = test system: MDA-MB-435; assay: Cytotoxicity against human MDA-MB-435 cells assessed as growth inhibition after 48 hrs by sulforhodamine B assay; conditions: MDA-MB-435, 48 h
[3] = test system: IGROV-1; assay: Cytotoxicity against human IGROV1 cells assessed as growth inhibition after 48 hrs by sulforhodamine B assay; conditions: IGROV-1, 48 h
[4] = test system: SK-OV-3; assay: Cytotoxicity against human SKOV3 cells assessed as cell growth at 0.01 uM after 48 hrs by sulforhodamine B assay relative to control; conditions: SK-OV-3, 48 h, read-out: Activity
[5] = test system: SK-MEL-5; assay: Cytotoxicity against human SK-MEL-5 cells assessed as cell growth at 0.01 uM after 48 hrs by sulforhodamine B assay relative to control; conditions: SK-MEL-5, 48 h, read-out: Activity
[6] = test system: MDA-MB-435; assay: Cytotoxicity against human MDA-MB-435 cells assessed as cell growth at 0.01 uM after 48 hrs by sulforhodamine B assay relative to control; conditions: MDA-MB-435, 48 h, read-out: Activity
[7] = test system: SNB-19; assay: Cytotoxicity against human SNB19 cells assessed as cell growth at 0.01 uM after 48 hrs by sulforhodamine B assay relative to control; conditions: SNB-19, 48 h, read-out: Activity
[8] = test system: RPMI-8226; assay: Cytotoxicity against human RPMI8226 cells assessed as cell growth at 0.01 uM after 48 hrs by sulforhodamine B assay relative to control; conditions: RPMI-8226, 48 h, read-out: Activity
[9] = test system: DU-145; assay: Cytotoxicity against human DU145 cells assessed as cell growth at 0.01 uM after 48 hrs by sulforhodamine B assay relative to control; conditions: DU-145, 48 h, read-out: Activity
[10] = test system: NCI-H226; assay: Cytotoxicity against human NCI-H226 cells assessed as cell growth at 0.1 uM after 48 hrs by sulforhodamine B assay relative to control; conditions: NCI-H226, 48 h, read-out: Activity
[11] = test system: NCI-H322M; assay: Cytotoxicity against human NCI-H322M cells assessed as cell growth at 0.1 uM after 48 hrs by sulforhodamine B assay relative to control; conditions: read-out: Activity
[12] = test system: HCT-15; assay: Cytotoxicity against human HCT15 cells assessed as cell growth at 0.1 uM after 48 hrs by sulforhodamine B assay relative to control; conditions: HCT-15, 48 h, read-out: Activity
[13] = test system: SW-620; assay: Cytotoxicity against human SW620 cells assessed as cell growth at 0.1 uM after 48 hrs by sulforhodamine B assay relative to control; conditions: SW-620, 48 h, read-out: Activity
[14] = test system: A498; assay: Cytotoxicity against human A498 cells assessed as cell growth at 0.1 uM after 48 hrs by sulforhodamine B assay relative to control; conditions: A498, 48 h, read-out: Activity
[15] = test system: ACHN; assay: Cytotoxicity against human ACHN cells assessed as cell growth at 0.1 uM after 48 hrs by sulforhodamine B assay relative to control; conditions: read-out: Activity
[16] = test system: NCI-H460; assay: Cytotoxicity against human NCI-H460 cells assessed as cell growth at 1 uM after 48 hrs by sulforhodamine B assay relative to control; conditions: NCI-H460, 48 h, read-out: Activity
[17] = test system: NCI-H522; assay: Cytotoxicity against human NCI-H522 cells assessed as cell growth at 1 uM after 48 hrs by sulforhodamine B assay relative to control; conditions: NCI-H522, 48 h, read-out: Activity
[18] = test system: COLO 205; assay: Cytotoxicity against human COLO205 cells assessed as cell growth at 1 uM after 48 hrs by sulforhodamine B assay relative to control; conditions: COLO 205, 48 h, read-out: Activity
[19] = test system: HCC 2998; assay: Cytotoxicity against human HCC2998 cells assessed as cell growth at 1 uM after 48 hrs by sulforhodamine B assay relative to control; conditions: HCC 2998, 48 h, read-out: Activity
[20] = test system: UACC-257; assay: Cytotoxicity against human UACC257 cells assessed as cell growth at 1 uM after 48 hrs by sulforhodamine B assay relative to control; conditions: UACC-257, 48 h, read-out: Activity
[21] = test system: SN12C; assay: Cytotoxicity against human SN12C cells assessed as cell growth at 1 uM after 48 hrs by sulforhodamine B assay relative to control; conditions: read-out: Activity
[22] = test system: BT-549; assay: Cytotoxicity against human BT549 cells assessed as cell growth at 1 uM after 48 hrs by sulforhodamine B assay relative to control; conditions: BT-549, 48 h, read-out: Activity
[23] = test system: HOP-62; assay: Cytotoxicity against human HOP62 cells assessed as cell growth at 10 uM after 48 hrs by sulforhodamine B assay relative to control; conditions: HOP-62, 48 h, read-out: Activity
[24] = test system: NCI-H522; assay: Cytotoxicity against human NCI-H522 cells assessed as cell growth at 10 uM after 48 hrs by sulforhodamine B assay relative to control; conditions: NCI-H522, 48 h, read-out: Activity
[25] = test system: COLO 205; assay: Cytotoxicity against human COLO205 cells assessed as cell growth at 10 uM after 48 hrs by sulforhodamine B assay relative to control; conditions: COLO 205, 48 h, read-out: Activity
[26] = test system: SW-620; assay: Cytotoxicity against human SW620 cells assessed as cell growth at 10 uM after 48 hrs by sulforhodamine B assay relative to control; conditions: SW-620, 48 h, read-out: Activity
[27] = test system: U-251; assay: Cytotoxicity against human U251 cells assessed as cell growth at 10 uM after 48 hrs by sulforhodamine B assay relative to control; conditions: U-251, 48 h, read-out: Activity
[28] = test system: A498; assay: Cytotoxicity against human A498 cells assessed as cell growth at 10 uM after 48 hrs by sulforhodamine B assay relative to control; conditions: A498, 48 h, read-out: Activity
[29] = test system: SN12C; assay: Cytotoxicity against human SN12C cells assessed as cell growth at 10 uM after 48 hrs by sulforhodamine B assay relative to control; conditions: read-out: Activity
[30] = test system: UO-31; assay: Cytotoxicity against human UO31 cells assessed as cell growth at 10 uM after 48 hrs by sulforhodamine B assay relative to control; conditions: UO-31, 48 h, read-out: Activity
[31] = test system: A549; assay: Cytotoxicity against human A549/ATCC cells assessed as cell growth at 100 uM after 48 hrs by sulforhodamine B assay relative to control; conditions: A549, 48 h, read-out: Activity
[32] = test system: SK-MEL-5; assay: Cytotoxicity against human SK-MEL-5 cells assessed as cell growth at 100 uM after 48 hrs by sulforhodamine B assay relative to control; conditions: SK-MEL-5, 48 h, read-out: Activity
[33] = test system: UACC-257; assay: Cytotoxicity against human UACC257 cells assessed as cell growth at 100 uM after 48 hrs by sulforhodamine B assay relative to control; conditions: UACC-257, 48 h, read-out: Activity
[34] = test system: MCF7; assay: Cytotoxicity against human MCF7 cells assessed as cell growth at 100 uM after 48 hrs by sulforhodamine B assay relative to control; conditions: MCF7, 48 h, read-out: Activity
[35] = test system: Hs-578T; assay: Cytotoxicity against human Hs 578T cells assessed as cell growth at 100 uM after 48 hrs by sulforhodamine B assay relative to control; conditions: read-out: Activity
[36] = test system: T47D; assay: Cytotoxicity against human T47D cells assessed as cell growth at 100 uM after 48 hrs by sulforhodamine B assay relative to control; conditions: read-out: Activity

Compound `COc1ccc(C(=O)/C=C/c2cc(-c3cc(OC)c(OC)c(OC)c3)n[nH]2)cc1` has a TGI [1] of 3.02 µM, an LC50 [2] of over 100 µM and a TGI [2] of 5.69 µM. The LC50 [3] was over 100 µM, the TGI [3] was 4.81 µM and the growth at 0.01 µM [4] was 100%. The growth at 0.01 µM [5] was 100%, the growth at 0.01 µM [6] was 99% and the growth at 0.01 µM [7] was 97%. For the same compound, the growth at 0.01 µM [8] was 98%, the growth at 0.01 µM [9] was 102% and the growth at 0.1 µM [10] was 102%. For the same compound, the growth at 0.1 µM [11] was 96%, the growth at 0.1 µM [12] was 100% and the growth at 0.1 µM [13] was 97%. The growth at 0.1 µM [14] was 87%, the growth at 0.1 µM [15] was 102% and the growth at 1 µM [16] was 85%. For the same compound, the growth at 1 µM [17] was 75%, the growth at 1 µM [18] was 94% and the growth at 1 µM [19] was 94%. For the same compound, the growth at 1 µM [20] was 87%, the growth at 1 µM [21] was 91% and the growth at 1 µM [22] was 93%. For the same compound, the growth at 10 µM [23] was -64%, the growth at 10 µM [24] was -73% and the growth at 10 µM [25] was -90%. For the same compound, the growth at 10 µM [26] was -69%, the growth at 10 µM [27] was -98% and the growth at 10 µM [28] was -57%. The growth at 10 µM [29] was -69%, the growth at 10 µM [30] was -93% and the growth at 100 µM [31] was 1%. The growth at 100 µM [32] was -93%, the growth at 100 µM [33] was -4% and the growth at 100 µM [34] was -69%. For the same compound, the growth at 100 µM [35] was 5% and the growth at 100 µM [36] was -9%.

With `COc1ccc(-c2cc(/C=C/C(=O)c3cc(OC)c(OC)c(OC)c3)[nH]n2)cc1OC` the GI50 [1] was 1.46 µM, the LC50 [1] was 5.7 µM and the TGI [1] was 2.88 µM. It also gave a GI50 [2] of 1.78 µM, an LC50 [2] of 9.2 µM and a TGI [2] of 4.05 µM. It also gave a GI50 [3] of 2.72 µM, an LC50 [3] of 46.7 µM and a TGI [3] of 8.61 µM. The growth at 0.01 µM [4] was 97%, the growth at 0.01 µM [5] was 101% and the growth at 0.01 µM [6] was 98%. For the same compound, the growth at 0.01 µM [7] was 91%, the growth at 0.01 µM [8] was 97% and the growth at 0.01 µM [9] was 108%. It also gave a growth at 0.1 µM [10] of 90%, a growth at 0.1 µM [11] of 88% and a growth at 0.1 µM [12] of 90%. The growth at 0.1 µM [13] was 96%, the growth at 0.1 µM [14] was 89% and the growth at 0.1 µM [15] was 91%. It also gave a growth at 1 µM [16] of 52%, a growth at 1 µM [17] of 71% and a growth at 1 µM [18] of 89%. The growth at 1 µM [19] was 105%, the growth at 1 µM [20] was 89% and the growth at 1 µM [21] was 87%. For the same compound, the growth at 1 µM [22] was 70%, the growth at 10 µM [23] was -57% and the growth at 10 µM [24] was -94%. It also gave a growth at 10 µM [25] of -72%, a growth at 10 µM [26] of -43% and a growth at 10 µM [27] of -97%. For the same compound, the growth at 10 µM [28] was -28%, the growth at 10 µM [29] was -62% and the growth at 10 µM [30] was -95%. The growth at 100 µM [31] was -62%, the growth at 100 µM [32] was -98% and the growth at 100 µM [33] was -94%. The growth at 100 µM [34] was -43%, the growth at 100 µM [35] was -16% and the growth at 100 µM [36] was -47%.

Source: ChEMBL document CHEMBL4138123, “Design, synthesis and biological evaluation of novel pyrazolochalcones as potential modulators of PI3K/Akt/mTOR pathway and inducers of apoptosis in breast cancer cells” (Eur J Med Chem, 2017)
